Measured values taken from patent publication US20240182431A1, “NEW CONTRAST AGENT FOR USE IN MAGNETIC RESONANCE IMAGING” (Bayer Aktiengesellschaft, priority 2021, published 2024).

Columns and labels:
OATP1B3 = target: T1, OATP1B3 (Homo sapiens, UniProt Q9NPD5); assay: Uptake into stable transfected OATP1B3 HEK 293 cells; assay type: cell-based
T1 sequence (Q9NPD5 1-702): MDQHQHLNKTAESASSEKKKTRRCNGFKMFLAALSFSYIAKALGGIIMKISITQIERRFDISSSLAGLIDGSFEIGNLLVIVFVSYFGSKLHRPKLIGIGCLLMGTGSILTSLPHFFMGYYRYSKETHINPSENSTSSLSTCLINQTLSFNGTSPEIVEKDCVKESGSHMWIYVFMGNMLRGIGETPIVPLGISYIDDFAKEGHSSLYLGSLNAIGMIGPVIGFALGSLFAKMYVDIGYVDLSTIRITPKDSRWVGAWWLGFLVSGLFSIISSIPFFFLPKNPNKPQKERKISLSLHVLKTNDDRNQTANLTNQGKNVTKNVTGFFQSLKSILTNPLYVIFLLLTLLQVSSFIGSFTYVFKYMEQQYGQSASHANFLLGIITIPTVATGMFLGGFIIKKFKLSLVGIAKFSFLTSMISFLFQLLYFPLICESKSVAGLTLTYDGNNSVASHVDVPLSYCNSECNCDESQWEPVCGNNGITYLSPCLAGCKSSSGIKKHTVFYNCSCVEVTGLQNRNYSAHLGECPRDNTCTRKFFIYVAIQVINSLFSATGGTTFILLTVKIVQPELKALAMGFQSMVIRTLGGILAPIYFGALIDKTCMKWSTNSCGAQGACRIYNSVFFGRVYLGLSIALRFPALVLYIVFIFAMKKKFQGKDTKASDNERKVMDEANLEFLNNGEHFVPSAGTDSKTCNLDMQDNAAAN

OATP1B1 = target: T2, OATP1B1 (Homo sapiens, UniProt Q9Y6L6); assay: Uptake into stable transfected OATP1B1 HEK 293 cells; assay type: cell-based
T2 sequence (Q9Y6L6 1-691): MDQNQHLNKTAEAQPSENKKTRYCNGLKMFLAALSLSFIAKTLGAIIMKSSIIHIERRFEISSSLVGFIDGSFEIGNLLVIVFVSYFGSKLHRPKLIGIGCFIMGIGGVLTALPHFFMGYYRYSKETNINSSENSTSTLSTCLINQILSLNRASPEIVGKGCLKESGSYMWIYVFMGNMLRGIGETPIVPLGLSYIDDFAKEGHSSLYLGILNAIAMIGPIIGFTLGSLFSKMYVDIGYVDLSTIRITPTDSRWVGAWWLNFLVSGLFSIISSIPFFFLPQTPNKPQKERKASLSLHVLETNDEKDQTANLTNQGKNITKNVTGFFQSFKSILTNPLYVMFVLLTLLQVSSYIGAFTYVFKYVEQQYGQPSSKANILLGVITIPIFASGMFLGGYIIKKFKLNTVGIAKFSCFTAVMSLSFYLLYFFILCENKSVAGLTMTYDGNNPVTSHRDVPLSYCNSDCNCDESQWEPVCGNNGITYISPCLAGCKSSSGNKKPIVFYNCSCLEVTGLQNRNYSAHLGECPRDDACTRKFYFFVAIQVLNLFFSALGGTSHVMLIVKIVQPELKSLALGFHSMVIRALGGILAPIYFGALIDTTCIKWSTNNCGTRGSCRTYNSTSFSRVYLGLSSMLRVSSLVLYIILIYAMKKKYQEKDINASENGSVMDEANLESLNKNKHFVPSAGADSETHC
Protocol: Cryopreserved cells were shortly thawed in water bath and diluted in 10 mL warm culture medium (37° C.). After medium change the cells were grown for 3 d in a 25 cm^2 cell culture flask. After 3 to 5 d the cells were transferred into 75 cm^2 flasks. […] All test items were prepared in transport buffer at a final concentration of 100 μM from stock solutions (180 to 500 mM concentration). The OATP1B1 HEK 293 cells were incubated with test solutions (test item in transport buffer 500 μL) for 40 min on a thermoshaker without shaking (PHMP, Fa. Grant Bio). Triplicates were performed for each test item. After incubation the cells were washed with 2 mL of cold PBS (+) buffer (Dulbeccos PBS+, Fa. Gibco). The OATP1B1 HEK 293 cells were lysed by addition of 500 μL cold 0.01% Triton-X 100 in Millipore water for 1 h. […] After 1 h 500 μL of 1 nM Terbium ICP-MS standard was added in 2% nitric acid and 0.01% Triton 100.

[1] = Excretion study in rats (5 days) and residual gadolinium organ distribution (7 days); assay type: in vivo, rat; details: male rats, 0.1 mmol Gd/kg bw i.v.
Protocol: The excretion and organ distribution of Example 1 and 15 were determined in male rats (Han-Wistar, n=3). The compound was administered as a sterile aqueous solution (50 mmol Gd/L) as a bolus in the tail vein of the animals. The dose was 0.1 mmol Gd/kg bw.
Urine was collected in the following time periods 0-1 h, 1-3 h, 3-6 h, 6-24 h, 1-2 d and 2-5 d post injection […] and feces 0-1 d, 1-2 d and 2-5 d post injection. As a control, 3 animals were treated in the same way with RC1. On day 7 the animals were sacrificed, and the following organs were excised: blood, liver, kidney, spleen, heart, lung, brain, muscle, skin, stomach, gut, bone and bone marrow. The remaining carcass was freeze dried and ground to a fine powder. The Gd concentration in the organs and the carcass was determined by ICP-MS (ICP-MS Agilent 7500a, Waldbronn, Germany). The compounds are excreted via dual pathway (liver and kidney). Less than 1% of the administered dose was present in the body 7 days after the injection.

[2] = Partition coefficient (logP butanol/buffer); assay type: physicochemical; details: 1-butanol / 50 mM Tris-HCl, pH 7.4, room temperature
[3] = Water solubility in aqueous buffer; assay type: physicochemical; details: aqueous buffer 10 mM Tris-HCl, pH 7.4, 20° C.
Protocol: The solid compounds were added stepwise to the buffer solution.
More substance is added once all the suspended material is dissolved until an equilibrium between undissolved and dissolved substance is reached. The suspension was mixed using a shaker (Heidolph Reax 2000) and treated 5 mn in an ultrasound bath (Bandelin, Sonorex Super RK255H).

[4] = In vivo pharmacokinetics following i.v. administration in rat; details: i.v. bolus, dose 100 μmol/kg bw
Protocol: Pharmacokinetic parameters of Example 1 and 15 and were determined in male and female rats (Han-Wistar, n=4). […] The samples were digested using strong acidic and oxidizing conditions at elevated temperature following dilution in 1% nitric acid to bring the samples in the quantification range of the method. The lower limit of quantitation amounts to 1 nmol/L for all elements and the upper limit to 1000 nmol/L in the diluted sample.
The fit of the obtained data to a three-compartment model (Phoenix, WinNonlin 6.4, 3-compartment mode) yielded the pharmacokinetic parameters which are shown in Table 8.

[5] = 1.5 T, 37° C., from Rohrer et al., cited from earlier work
[6] = Complex stability (transmetallation with Zn2+); assay type: physicochemical; details: 72 hours, 2.5 mM Zn^2+, 26 mM phosphate buffer, 37° C., pH 7.4
Source text: If test compounds are instable under these conditions, transmetallation during this test would lead to the formation of the Zn^2+ complex of the test item, while Gd^3+ is released and precipitated as highly insoluble GdPO4.

[7] = system: freshly isolated rat hepatocytes; assay: Uptake into freshly isolated rat hepatocytes; assay type: cell-based
Protocol: After incubation the adherent hepatocytes were washed once with 37° C. Hepes carbonate transport buffer (500 μL/well). The test items and RC1 were prepared from stock solutions (180 to 500 mM concentration) in Hepes carbonate transport buffer at pH 7.4 to reach a final concentration of 100 μmol Gd/L. The specific uptake of the test item or RC1 into rat hepatocytes via OATP1B1 and OATP1B3 was challenged using a known OATP1B1/1B3 inhibitor (Rifampicine, Fa. Sigma R3501, test item and inhibitor 1:1 each 100 μM final concentration). The prepared rat hepatocyte plates were incubated with test solutions (500 μL/well) at 37° C. for 10 min using a thermoshaker (Fa. Grant Bio, PHMP). Triplicates were performed for each test item. After incubating the cells were washed once with cold PBS buffer (Fa. Gibco, Dulbeccos PBS (+)). After washing the intact hepatocytes were lysed by addition of 500 μL cold 0.01% Triton-X 100 in Millipore water for 1 h. […] As a reference standard RC1 is used in the same well plate. The hepatocyte uptake of the test compound is calculated relative to RC1 (resulting in the unit % of RC1).

[8] = 100 μM, 40 min, relative to RC1

SMILES: CCOc1ccc(C[C@@H](CN(CCN(CC(=O)[O-])CC(=O)[O-])CC(=O)[O-])N(CC(=O)[O-])CC(=O)[O-])cc1.[Gd+3].[H+].[H+] [RC1, Gd-EOB-DTPA]
- Uptake into OATP1B3-HEK 293 cells (OATP1B3; [8]): 100 % of RC1
- Inhibition Rifampicine (OATP1B3; OATP1B3-HEK 293 cells): 99 % inhibition
- Uptake into OATP1B1-HEK 293 cells (OATP1B1; [8]): 100 % of RC1
- Inhibition Rifampicine (OATP1B1; OATP1B1-HEK 293 cells): 81 % inhibition
- Excretion Urine ([1]; 0-1 h post injection): 23.2 ± 1.6% Dose
- Excretion Feces ([1]; 0-1 d post injection): 77.5 ± 2.7% Dose
- Excretion Urine ([1]; 1-3 h post injection): 23.5 ± 1.5% Dose
- Excretion Feces ([1]; 1-2 d post injection): 80.6 ± 2.9% Dose
- Excretion Urine ([1]; 1-2 d post injection): 23.7 ± 1.5% Dose
- Excretion Feces ([1]; 2-5 d post injection): 80.8 ± 2.9% Dose
- Excretion Urine ([1]; 2-5 d post injection): 23.7 ± 1.5% Dose
- Excretion Urine ([1]; 3-6 h post injection): 23.6 ± 1.5% Dose
- Excretion Urine ([1]; 6-24 h post injection): 23.7 ± 1.5% Dose
- Σ organs and carcass ([1]; 7 d post injection): 0.14 ± 0.08% Dose
- Total recovery [1]: 104.6 ± 2.4% Dose
- Log P (butanol/buffer) [2]: −2.12
- Solubility [3]: >250 mM
- AUCnorm Area under the curve [4]: 0.40 kg·h/L
- Clplasma Plasma clearance [4]: 40 mL/min/kg
- Vss Volume of distribution at steady state [4]: 0.9 L/kg
- t½ α Half-life, compartment V1 [4]: 2 min
- t½ β Half-life, compartment V2 [4]: 8 min
- t½ γ Half-life, compartment V3 [4]: 390 min
- r1 human plasma ([5]; bovine plasma instead of human plasma): 5.2 L/mmol/s
- r1 water ([5]; water): 3.3 L/mmol/s
- Transmetallation stability [6]: 44%
- Uptake rat hepatocytes ([7]; 100 μmol Gd/L, 10 min, 37° C., relative to RC1): 100 % of RC1
- Inhibition Rifampicine ([7]; test item and Rifampicine 1:1 each 100 μM): 97 % inhibition
